The values below come from publication PMC12110804, “Molecular Characterization and Functional Analysis of Odorant-Binding Proteins in Ectropis grisescens” (International Journal of Molecular Sciences, 2025).

“Also recorded” adds a separate entry of the source. Read-outs that look alike come from different tables or passages of the source.

Test [1] addresses T1, EgriGOBP2 (Ectropis grisescens, UniProt A0A977IVV0). Nature of the test: Fluorescence competitive binding assay (1-NPN displacement) with recombinant EgriGOBP2. The note with it: for binding to EgriGOBP2 (in words, displacement of 1-NPN fluorescence): non-binding ligands. As to the method: The excitation wavelength was 337 nm, and the emission spectrum ranged from 370 to 550 nm. […] The binding curves were linearized using Scatchard plots, based on fluorescence intensity values relative to the maximum fluorescence emissions.
The dissociation constants (Ki) of each ligand were calculated with the following equation: Ki = [IC50]/(1 + [1-NPN]/K1-NPN).

Test [2] has as its target T1, EgriGOBP2. Nature of the test: Binding of fluorescent probe 1-NPN to recombinant EgriGOBP2 (binding curve, Scatchard plot). Particulars: 2 µM protein in 20 mM Tris-HCl pH 7.4, 1-NPN 0–16 µM, read-out: dissociation constant (Kd) of 1-NPN. As for the experimental part:
The binding affinities of target proteins were measured with an F-7000 fluorescence spectrophotometer (Hitachi, Tokyo, Japan) using a 1 cm light path quartz cuvette, and 1-N-phenyl-naphthylamine (1-NPN) was used as a fluorescent probe. The excitation wavelength was 337 nm, and the emission spectrum ranged from 370 to 550 nm. A total of 24 volatile compounds, including host volatiles and plant essential oil-derived volatiles, were selected for fluorescence competitive binding assays (Table 2). First, the binding affinities of 1-NPN to the target proteins were determined. The protein solutions (2 µM in 20 mM Tris-HCl, pH = 7.4) were titrated with 1-NPN to final concentrations ranging from 0 to 16 µM. The binding curves were linearized using Scatchard plots, based on fluorescence intensity values relative to the maximum fluorescence emissions. Next, each ligand (at concentrations of 0–16 µM, prepared at a 1 mM stock concentration) was added to the 2 µM EgriGOBP2/1-NPN mixture, and competitive binding curves were plotted based on the fluorescence intensity values from three replicates.
The dissociation constants (Ki) of each ligand were calculated with the following equation: Ki = [IC50]/(1 + [1-NPN]/K1-NPN). […]

The test system of test [3] is RpedOBP38. More on the design: method as in PMID 39835200. The note with it: plant essential oil-derived volatiles with repellent activity; cited from earlier work.
Test [4] concerns GOBP2 in Ectropis obliqua. More on the design: method as in PMID 29543772. Particulars: host odors; cited from earlier work.
In test [5] the test system is AgamOBP5. More on the design: method as in PMID 36921814. Particulars: cited from earlier work.
Test [6] concerns Sitophilus zeamais. More on the design: method as in PMID 31813390. Particulars: cited from earlier work.
Test [7] deals with Frankliniella occidentalis, Frankliniella intonsa, and Thrips palmi Karny. Details: method as in PMID 33346361. The note with it: Y-tube olfactometer bioassays; cited from earlier work.
In test [8] the test system is C. pallens. More on the design: method as in PMID 25810363. The note with it: glass Y-tube olfactometer; cited from earlier work.
The test system of test [9] is CpalOBP2. Details: method as in PMID 25810363. Particulars: cited from earlier work.
The mark [10] stands for this setting: EgriGOBP2 Ki, Ki = [IC50]/(1 + [1-NPN]/K1-NPN), 2 µM EgriGOBP2/1-NPN mixture, pH 7.4.
Where [11] appears, read: Ki = [IC50]/(1 + [1-NPN]/K1-NPN), 2 µM EgriGOBP2/1-NPN mixture, pH 7.4, read-out: EgriGOBP2 Ki.
The mark [12] stands for this setting: displacement of 1-NPN from 2 µM EgriGOBP2/1-NPN mixture, 20 mM Tris-HCl pH 7.4, ligand 0–16 µM, read-out: EgriGOBP2 IC50.
Where [13] appears, read: EgriGOBP2 Ki (dash cells), “-”: no detectable Ki.
The mark [14] stands for this setting: cells printed as “-”: IC50 could not be calculated, read-out: EgriGOBP2 IC50 (dash cells).
[15] abbreviates: “-”: no detectable Ki, read-out: EgriGOBP2 Ki (dash cells).

T1 sequence (A0A977IVV0 entry or part of it): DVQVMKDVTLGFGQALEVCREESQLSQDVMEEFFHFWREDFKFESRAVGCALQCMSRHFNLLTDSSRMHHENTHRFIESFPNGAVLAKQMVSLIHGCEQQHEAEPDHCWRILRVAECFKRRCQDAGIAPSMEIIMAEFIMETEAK

Turning to `CC(C)=CCCC(C)=CC=O` (mixture of isomers) [Citral], in test [1], the IC50 stood at 9.12 µM. In [1] (setting [10]), the Ki amounted to 8.23 µM.
With `C=CC(C)(O)CCC=C(C)CCC=C(C)C` (mixture of isomers) [Nerolidol], the Ki in [1] (setting [11]) was determined as 7.93 µM. Further, the 50% inhibitory concentration (IC50) in test [1] (setting [12]) was found to be 8.79 µM.
Turning to `c1ccc(Nc2cccc3ccccc23)cc1` [1-NPN, 1-N-phenyl-naphthylamine], the Kd in test [2] is 9.28 µM.
For `C=CC(O)CC` (centres unmarked) [1-penten-3-ol], in [1] (setting [11]), the inhibition constant Ki is 40.6 µM. Besides, the 50% inhibitory concentration (IC50) in [1] (setting [12]) was 44.8 µM.
For `C=CCc1ccc(OC)cc1` [4-allylanisole], the 50% inhibitory concentration (IC50) in test [1] was found to be 8.1 µM. Moreover, in [1] (setting [10]), the Ki was determined as 7.31 µM.
For `CC1=CC[C@](O)(C(C)C)CC1` [(+) -4-terpineol], the “binding to RpedOBP38 (in words)” value in test [3] was “found to bind”.
With `C=C(C)[C@H]1CC=C(C)C(=O)C1` [(S)-(+)-carvone], the “binding affinity to EgriGOBP2 (class in words)” value (from here on “binding affinity to EgriGOBP2”) in [1] is reported as “strong (strong (6 µM < Ki ≤ 22 µM))”. Further, in test [1] (setting [12]), the IC50 was found to be 5.36 µM.
Regarding `O=Cc1ccccc1` [Benzaldehyde], the “competitive binding to Ectropis obliqua GOBP2 (in words)” value in [4] was “competitively bind”. In test [1], the IC50 is more than 16 µM and the “binding to EgriGOBP2 (in words, displacement of 1-NPN fluorescence)” value (“binding to EgriGOBP2” below) is given as “negligible binding; also recorded: did not exhibit binding affinity”. Also, the inhibition constant (Ki) in test [1] (setting [13]) is more than 14.4 µM.
In the case of `CC(=O)OCc1ccccc1` [Benzyl acetate], the inhibitory constant (Ki) in test [1] (setting [11]) stood at 13 µM. Further, in test [1] (setting [12]), the half-inhibitory concentration (IC50) came to 14.3 µM.
On to `OCc1ccccc1` [Benzyl alcohol], for which, in test [1], the concentration for half-maximal inhibition (IC50) was 30 µM. Besides, the inhibition constant Ki in test [1] (setting [10]) was 27 µM.
Turning to `Cc1ccc(C(C)C)cc1O` [Carvacrol], the half-maximal inhibitory concentration (IC50) in test [1] was determined as 23.6 µM. Moreover, the inhibition constant Ki in test [1] (setting [10]) is 21.3 µM. Besides, in test [5], the “binding to AgamOBP5 (in words)” value is listed as “strong binder”. In addition, the “binding to RpedOBP38 (in words)” value in test [3] is “found to bind”.
For `C=C(C)C1CC=C(C)C(=O)C1` (centres unmarked) [Carvone], the “repellency to Sitophilus zeamais (in words)” value in [6] was “strongly repellent”.
With `O=C/C=C/c1ccccc1` [Cinnamaldehyde], in test [1], the IC50 was more than 16 µM and the “binding to EgriGOBP2” value is “did not bind”. Moreover, the Ki in test [1] (setting [13]) was more than 14.4 µM.
For the compound `CC/C=C\CCOC(C)=O` [Cis-3-hexenyl acetate], the inhibitory constant (Ki) in test [1] (setting [11]) was 13.1 µM. Further, the half-inhibitory concentration (IC50) in test [1] (setting [12]) amounted to 14.5 µM.
For `CC/C=C\CCOC(=O)CCCCC` [Cis-3-hexenyl caproate], in that order: 14 µM and 15.5 µM.
`CC/C=C\CCOC(=O)CCC` [Cis-3-hexenyl tyrate]: in test [1], the “binding affinity to EgriGOBP2” value is reported as “moderate (moderate (22 µM < Ki ≤ 40 µM))”. In addition, in test [1] (setting [11]), the inhibition constant (Ki) was 18.6 µM. The half-inhibitory concentration (IC50) in [1] (setting [12]) turned out to be 20.6 µM.
For the compound `CCCCCCCCCC=O` [Decanal], the IC50 in [1] (setting [14]) is more than 16 µM. Further, the “binding to EgriGOBP2” value in test [1] is “negligible binding”. The Ki in [1] (setting [15]) is more than 14.4 µM.
Regarding `CCC/C=C/C=O` [E-2-hexenal], in test [1], the half-maximal inhibitory concentration (IC50) was more than 16 µM and the “binding to EgriGOBP2” value is reported as “negligible binding; also recorded: did not exhibit binding affinity”. The Ki in test [1] (setting [13]) was more than 14.4 µM.
As for `CC12CCC(CC1)C(C)(C)O2` [Eucalyptol], the inhibitory constant (Ki) in test [1] (setting [11]) was less than 10 µM. In addition, in [1] (setting [12]), the IC50 was 9.36 µM. The “repellent activity against three thrip species (in words)” value in test [7] is reported as “significant repellent activity”.
For `C=CCc1ccc(O)c(OC)c1` [Eugenol], the IC50 in [1] was determined as 9.28 µM. Further, the Ki in [1] (setting [10]) is 8.38 µM.
For `CC(=O)OC/C=C(\C)CCC=C(C)C` [Geranyl acetate], in test [1] (setting [11]), the Ki was found to be 22.3 µM. Moreover, the 50% inhibitory concentration (IC50) in test [1] (setting [12]) was found to be 24.7 µM.
As to `C=C(C)[C@@H]1CC=C(C)C(=O)C1` [L(-)-carvone], the inhibitory constant (Ki) in test [1] (setting [11]) is 11.6 µM. In addition, the IC50 in test [1] (setting [12]) is 12.9 µM. Also, the “binding to RpedOBP38 (in words)” value in test [3] is “found to bind”.
`C=CC(C)(O)CCC=C(C)C` (centres unmarked) [Linalool]: the IC50 in [1] was 11.9 µM. In test [1] (setting [10]), the Ki turned out to be 10.8 µM.
In the case of `COC(=O)c1ccccc1O` [Methyl salicylate], the “competitive binding to Ectropis obliqua GOBP2 (in words)” value in [4] was “competitively bind”. Moreover, the concentration for half-maximal inhibition (IC50) in [1] was 17.3 µM. In addition, the Ki in test [1] (setting [10]) was 15.6 µM.
Take `CCCCCCCCC=O` [Nonanal]: in test [1] (setting [14]), the IC50 is more than 16 µM. For the same compound, the “binding to EgriGOBP2” value in test [1] is recorded as “negligible binding; also recorded: did not exhibit binding affinity”. The Ki in test [1] (setting [15]) is more than 14.4 µM.
On to `C=CC(C)=CCC=C(C)C` [Ocimene], for which the “binding affinity to EgriGOBP2” value in [1] is listed as “moderate (moderate (22 µM < Ki ≤ 40 µM))”. The inhibition constant (Ki) in test [1] (setting [11]) worked out at 18 µM. For the same compound, in test [1] (setting [12]), the IC50 turned out to be 19.9 µM.
On to `CC(C)=CCC/C(C)=C/CC/C(C)=C/CO` [farnesol], for which, in [8], the “behavioral response of C. pallens (in words)” value is “significant and strong repellent behavioral responses”. Further, the “binding affinity for CpalOBP2 (in words)” value in test [9] is “strong and high binding affinities”.
Consider `CCCCCCO` [n-hexyl alcohol], for which, in [1] (setting [11]), the Ki was 21.2 µM. Also, the half-inhibitory concentration (IC50) in test [1] (setting [12]) turned out to be 23.5 µM.
farnesene: the “behavioral response of C. pallens (in words)” value in test [8] is “significant and strong repellent behavioral responses”. In test [9], the “binding affinity for CpalOBP2 (in words)” value was “strong and high binding affinities”.
